# Measured values published in US20040029773A1, “Use of 1-ebio in the treatment of bipolar disorders” (priority 2000, published 2004).
# Experiments:
# [1] = test system: amphetamine/chlordiazepoxide-induced hyperactivity in mice; experiment: amphetamine/chlordiazepoxide-induced hyperactivity, rodent model of mania (locomotor activity); settings: 150 mg/kg i.p., data not shown
# [2] = test system: amphetamine/chlordiazepoxide-induced hyperactivity in mice; settings: previous validation studies (literature); cited from earlier work
smiles,measurement,setting,value
CCCC(CCC)C(=O)[O-].[Na+] [sodium valproate],amphetamine/chlordiazepoxide-induced hyperactivity,[1],can be prevented
same,behaviour induced by amphetamine plus chlordiazepoxide,[2],can be ameliorated
